For assay [1], the system named is HT-29. Kind of assay: Cytotoxicity against Homo sapiens (human) HT-29 cells after 72 hr by MTT assay. The class given is functional, cell-based. Particulars: HT-29, 72 h, read-out: pIC50 (converted). A general note: Formazan colour is commonly taken as a measure of viable cells.
The test system of assay [2] is HCT-116. The assay is described as follows: Cytotoxicity against Homo sapiens (human) HCT116 cells after 72 hr by MTT assay. The class given is functional, cell-based. As to conditions: HCT-116, 72 h, read-out: pIC50 (converted).
Assay [3] concerns Candida albicans. Kind of assay: Antifungal activity against Candida albicans MTCC 227 after 48 hr by tube dilution method. The class given is functional.
Assay [4] deals with Escherichia coli. The assay is described as follows: Antibacterial activity against Escherichia coli MTCC 1652 after 24 hr by tube dilution method. The class given is functional.
Assay [5] has as its system Aspergillus niger. Kind of assay: Antifungal activity against Aspergillus niger MTCC 8189 after 7 days by tube dilution method. The class given is functional.
Assay [6] concerns Bacillus subtilis. The assay is described as follows: Antibacterial activity against Bacillus subtilis MTCC 2063 after 24 hr by tube dilution method. The class given is functional.
Assay [7] concerns Bacillus subtilis. Kind of assay: Bactericidal activity against Bacillus subtilis MTCC 2063. The class given is functional.
Assay [8] concerns Aspergillus niger. Kind of assay: Fungicidal activity against Aspergillus niger MTCC 8189. The class given is functional.
Assay [9] deals with Staphylococcus aureus. Kind of assay: Antibacterial activity against Staphylococcus aureus MTCC 2901 after 24 hr by tube dilution method. The class given is functional.
The test system of assay [10] is Staphylococcus aureus. The assay is described as follows: Bactericidal activity against Staphylococcus aureus MTCC 2901. The class given is functional.
Assay [11] relates to Candida albicans. The assay is described as follows: Fungicidal activity against Candida albicans MTCC 227. The class given is functional.
Assay [12] concerns Escherichia coli. Kind of assay: Bactericidal activity against Escherichia coli MTCC 1652. The class given is functional.

SMILES strings stand for the structures.

As for `O=c1[nH]cc(F)c(=O)[nH]1` [FLUOROURACIL], the IC50 in [1] was 85.1 µM; in [2] it was 45.7 µM.
Take `COc1cccc(/C=N/c2c(C)n(C)n(-c3ccccc3)c2=O)c1O`: the “-logMIC” value in [3] is on record as 1.43; in assay [4], 1.43; in assay [5], 1.13; in assay [6], 1.13; in assay [9] it was 1.13. Besides, the MBC in [7], in [10] and in assay [12] was above 0.15 uM/ml throughout. Moreover, the MFC in assay [8] and in assay [11] was above 0.15 uM/ml throughout. In addition, in assay [2], the IC50 is 89.1 µM.
With `Cc1c(/N=C/c2cccc([N+](=O)[O-])c2)c(=O)n(-c2ccccc2)n1C`, the “-logMIC” value in assay [3] was 1.43; in assay [4], 1.43; in assay [5], 1.43; in assay [6], 1.43; in [9] it was 1.13. Further, the MBC in [7], in assay [10] and in assay [12] was above 0.15 uM/ml in each case. Besides, the MFC in assay [8] and in [11] was above 0.15 uM/ml throughout.
Regarding `COc1cc(/C=N/c2c(C)n(C)n(-c3ccccc3)c2=O)cc(OC)c1OC`, the “-logMIC” value in assay [3], in assay [4], in [5], in assay [6] and in assay [9] was 1.48 each time. Besides, the MBC in assay [7], in [10] and in [12] was above 0.13 uM/ml each time. Besides, the MFC in assay [8] is 0.13 uM/ml; in assay [11], above 0.13 uM/ml.
Consider `COc1ccccc1/C=N/c1c(C)n(C)n(-c2ccccc2)c1=O`, for which the “-logMIC” value in assay [3], in assay [4], in assay [5], in assay [6] and in assay [9] was 1.41 in each case. The MBC in [7], in assay [10] and in assay [12] was above 0.16 uM/ml throughout. Also, the IC50 in assay [1] is 70.8 µM. For the same compound, the MFC in assay [8] and in assay [11] was above 0.16 uM/ml in each case.
Consider `Cc1c(/N=C/c2ccccc2Cl)c(=O)n(-c2ccccc2)n1C`, for which the “-logMIC” value is 1.42 in assay [3]; 1.42 in assay [4]; 1.42 in [5]; 1.42 in assay [6]; 1.12 in assay [9]. For the same compound, the MBC in assay [7], in assay [10] and in [12] was above 0.15 uM/ml in each case. Further, the MFC in [8] and in assay [11] was above 0.15 uM/ml throughout.
Regarding `Cc1c(/N=C/c2ccc(Cl)cc2)c(=O)n(-c2ccccc2)n1C`, the “-logMIC” value in [3] is on record as 1.42; in assay [4], 1.12; in assay [5], 1.42; in [6], 1.12; in assay [9], 1.12. Moreover, the MBC in assay [7], in assay [10] and in assay [12] was above 0.15 uM/ml in each case. Moreover, the MFC in [8] was 0.15 uM/ml; in assay [11] it was above 0.15 uM/ml.
On to `Cc1c(/N=C/c2cccc(O)c2)c(=O)n(-c2ccccc2)n1C`, for which the “-logMIC” value worked out at 1.39 in assay [3]; 1.39 in assay [4]; 1.39 in assay [5]; 1.39 in assay [6]; 1.09 in assay [9]. In addition, the MBC in [7], in assay [10] and in assay [12] was above 0.16 uM/ml each time. The MFC in assay [8] and in assay [11] was above 0.16 uM/ml in each case.
In the case of `CCn1cc(C(=O)O)c(=O)c2cc(F)c(N3CCNCC3)cc21` [NORFLOXACIN], the “-logMIC” value in assay [4], in [6] and in [9] was 2.61 throughout. Moreover, the MBC in [7], in assay [10] and in [12] was 0.019 uM/ml throughout.
With `COc1cccc(/C=N/c2c(C)n(C)n(-c3ccccc3)c2=O)c1`, the “-logMIC” value was 1.41 in assay [3]; 1.41 in [4]; 1.41 in assay [5]; 1.11 in [6]; 1.11 in assay [9]. The MBC in assay [7], in assay [10] and in assay [12] was above 0.16 uM/ml in each case. Also, the results for the MFC in [8] and in [11] were 0.16 uM/ml and above 0.16 uM/ml, respectively.
For `OC(Cn1cncn1)(Cn1cncn1)c1ccc(F)cc1F` [FLUCONAZOLE], the “-logMIC” value in [3] and in [5] was 2.64 throughout. In addition, the MFC in assay [8] and in [11] was 0.04 uM/ml throughout.
`Cc1c(/N=C/c2ccc(O)cc2)c(=O)n(-c2ccccc2)n1C`: the “-logMIC” value in [3] is listed as 1.39; in assay [4] it was 1.39; in [5], 1.69; in assay [6], 1.39; in [9], 1.39. Besides, the MBC in assay [7], in assay [10] and in [12] was above 0.16 uM/ml in each case. Also, the MFC in assay [8] and in assay [11] was above 0.16 uM/ml throughout.
As to `COc1ccc(/C=N/c2c(C)n(C)n(-c3ccccc3)c2=O)cc1`, the “-logMIC” value amounted to 1.41 in assay [3]; 1.41 in [4]; 1.41 in assay [5]; 1.11 in assay [6]; 1.11 in assay [9]. Also, the MBC in [7], in [10] and in assay [12] was above 0.16 uM/ml in each case. Further, the MFC in [8] and in assay [11] was above 0.16 uM/ml in each case.
`Cc1c(/N=C/c2ccccc2)c(=O)n(-c2ccccc2)n1C`: the “-logMIC” value in assay [3] is recorded as 1.37; in assay [4] it was 1.37; in assay [5], 1.37; in assay [6], 1.07; in assay [9], 1.07. Moreover, the MBC in [7], in [10] and in assay [12] was above 0.17 uM/ml each time. The MFC in [8] and in assay [11] was above 0.17 uM/ml throughout.
Consider `Cc1c(/N=C/c2cccc(Cl)c2)c(=O)n(-c2ccccc2)n1C`, for which the “-logMIC” value in assay [3] turned out to be 2.02; in [4] it was 2.02; in assay [5] it was 1.42; in [6], 1.72; in assay [9], 1.72. In addition, the MBC in assay [7], in assay [10] and in assay [12] was above 0.15 uM/ml throughout. Also, the MFC in assay [8] and in [11] was above 0.15 uM/ml each time.
On to `COc1ccc(/C=N/c2c(C)n(C)n(-c3ccccc3)c2=O)cc1OC`, for which the “-logMIC” value is 1.45 in assay [3]; 1.45 in [4]; 1.45 in assay [5]; 1.15 in assay [6]; 1.15 in [9]. The MBC in [7], in [10] and in assay [12] was above 0.14 uM/ml throughout. Moreover, the MFC in assay [8] and in [11] was above 0.14 uM/ml in each case.
Turning to `CCOc1cc(/C=N/c2c(C)n(C)n(-c3ccccc3)c2=O)ccc1O`, the “-logMIC” value in assay [3] was 1.45; in [4] it was 1.45; in [5] it was 1.45; in assay [6], 1.15; in [9], 1.15. The MBC in assay [7], in assay [10] and in assay [12] was above 0.14 uM/ml each time. Moreover, the MFC in [8] and in assay [11] was above 0.14 uM/ml throughout.
For the compound `Cc1c(/N=C/c2ccc(Cl)cc2Cl)c(=O)n(-c2ccccc2)n1C`, the “-logMIC” value in assay [3] stood at 1.46; in [4], 1.46; in assay [5] it was 1.46; in assay [6], 1.16; in assay [9] it was 1.16. Besides, the MBC in assay [7], in [10] and in assay [12] was above 0.14 uM/ml each time. Besides, the MFC in assay [8] and in assay [11] was above 0.14 uM/ml in each case.

The record behind these values is ChEMBL document CHEMBL3046140, “Design, synthesis, antimicrobial, anticancer evaluation, and QSAR studies of 4-(substituted benzylidene-amino)-1,5-dimethyl-2-phenyl-1,2-dihydropyrazol-3-ones” (Med Chem Res, 2012).
